According to patent US20250163089A1, “Branched Molecules for Redox Flow Batteries” (XL Batteries, Inc., priority 2023, published 2025):

Columns and labels:
[1] = solvent not stated
[2] = Viscosity of the solution; type: physicochemical; settings: at a concentration of […]

maximum concentration dissolved, after which solid precipitated from the solution [1] [M]	Molecule	viscosity [2] [cP]
0.251	O=C(O)CCC[c-]1cccc1.[Fe+2].c1cc[cH-]c1 [4-ferrocene butyric acid]	–
–	N-(4-ferrocenylbutanoyl)-L-glutamate	3.7
